Several values for one entry are separate records, joined by “and”; a condition that tells them apart may be missing. Equal values may be shown once. Read-outs that look alike come from different tables or passages of the source.
Columns and labels:
Experiment in all cases: Greenhouse test, pre-emergence treatment
APESV = format: in vivo, Apera spica-venti; conditions: for inhibition at 12.5 g/ha: use rate 12.5 g ai/ha; for inhibition at 25 g/ha: use rate 25 g ai/ha
Text: (§1) The culture containers used were plastic flowerpots containing loamy sand with approximately 3.0% of humus as the substrate. The seeds of the test plants were sown separately for each species.
(§2) For the pre-emergence treatment, the active ingredients, which had been suspended or emulsified in water, were applied directly after sowing by means of finely distributing nozzles. The containers were irrigated gently to promote germination and growth and subsequently covered with transparent plastic hoods until the plants had rooted. This cover caused uniform germination of the test plants, unless this had been impaired by the active ingredients.
(§3) Depending on the species, the plants were kept at 10-25° C. or 20-35° C., respectively.
(§4) The test period extended over 2 to 4 weeks. During this time, the plants were tended, and their response to the individual treatments was evaluated.
(§5) Evaluation was carried out using a scale from 0 to 100. 100 means no emergence of the plants, or complete destruction of at least the aerial moieties, and 0 means no damage, or normal course of growth. A moderate herbicidal activity is given at values of at least 60, a good herbicidal activity is given at values of at least 70, and a very good herbicidal activity is given at values of at least 85.
(§6) The respective stated components a and b, and if appropriate, c were formulated as a 10% by weight strength emulsion concentrate and, with addition of the amount of solvent system, introduced into the spray liquor used for applying the active compound.
(§7) In the examples, the solvent used was water.
(§8) In the examples below, using the method of S. R. Colby (1967) “Calculating synergistic and antagonistic responses of herbicide combinations”, Weeds 15, p. 22ff., the value E, which is expected if the activity of the individual active compounds is only additive, was calculated. E=X+Y−(X·Y/100) where • X=percent activity using active compound a at an application rate A; • Y=percent activity using active compound b at an application rate B; • E=expected activity (in %) by a+b at application rates A+B.
(§9) If the value found experimentally is higher than the value E calculated according to Colby, a synergistic effect is present.

ANTAR = format: in vivo; conditions: Anthemis arvensis, 480 h, 20 DAT, read-out: observed % activity
Outline: (§10)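 Seeds were sown in loamy sand with about 3.0% humus, and compounds in water were sprayed immediately after sowing, alone or as combinations formulated as 10% emulsion concentrates. Plants grew under hoods until rooted, at 10-25 °C or 20-35 °C by species, for 2 to 4 weeks. Damage was scored 0-100 (100 = no emergence or complete destruction), and Colby expected values were E=X+Y−(X·Y/100).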

SIDRH = format: in vivo, Sida rhombifolia
Outline: as §10

CENCY [1] = format: in vivo; conditions: 480 h, read-out: observed % activity 20 DAT
CENCY [2] = format: in vivo; conditions: 480 h, individual, read-out: observed % activity 20 DAT
DIGSA [3] = format: in vivo; conditions: Digitaria sanguinalis, 480 h, read-out: observed % activity 20 DAT
MATIN = format: in vivo
IPOHE = format: in vivo, Ipomoea hederacea; conditions: Ipomoea hederacea, 480 h
Outline: as §10

SORHA = format: in vivo, Sorghum halepense; conditions: Sorghum halepense, pre-emergence, read-out: observed % activity; for inhibition at 8 g/ha: 8 g ai/ha; for inhibition at 16 g/ha: 16 g ai/ha; for inhibition at 250 g/ha: 250 g ai/ha
Text: as §1, §2, §3, §4, §5, §6, §7, §8, §9

CENCY [4] = format: in vivo, Centaurea cyanus
ERICA [5] = format: in vivo, Erigeron canadensis
SETVI = format: in vivo, Setaria viridis
Text: as §1, §2, §3, §4, §5, §6, §7, §8, §9

ERICA [6] = format: in vivo; conditions: 480 h, 125 g ai/ha, read-out: observed % activity 20 DAT
DIGSA [7] = format: in vivo, Digitaria sanguinalis; conditions: 8 g ai/ha
[8] = Apera spica-venti, 480 h, APESV, 20 DAT, read-out: observed % activity 20 DAT
[9] = Apera spica-venti, 480 h, read-out: observed % activity 20 DAT

CC(C)N(C)S(=O)(=O)NC(=O)c1cc(-n2c(=O)cc(C(F)(F)F)n(C)c2=O)c(F)cc1Cl [Saflufenacil, saflufenacil]
inhibition at 3.125 g/ha (APESV; Apera spica-venti, 480 h, APESV, use rate 3.125 g ai/ha, 20 DAT, read-out: observed % activity 20 DAT): 0%
inhibition at 5 g/ha (ANTAR; 5 g ai/ha): 98%
inhibition at 5 g/ha (SIDRH; Sida rhombifolia, pre-emergence, 480 h, 5 g ai/ha, 20 DAT, read-out: observed % activity): 55%
inhibition at 10 g/ha (SIDRH; Sida rhombifolia, pre-emergence, 480 h, 10 g ai/ha, 20 DAT, read-out: observed % activity): 90%
inhibition at 10 g/ha (SIDRH; Sida rhombifolia, pre-emergence, 480 h, SIDRH, pre-emergence, individual, use rate 10 g ai/ha, read-out: observed % activity 20 DAT): 20%
inhibition at 10 g/ha (SIDRH; Sida rhombifolia, pre-emergence, 480 h, pre-emergence, 10 g ai/ha, read-out: observed % activity 20 DAT): 20%
inhibition at 5 g/ha (CENCY [1]; 5 g ai/ha): 20%
inhibition at 10 g/ha (CENCY [1]; 10 g ai/ha): 30%
inhibition at 5 g/ha (CENCY [2]; use rate 5 g ai/ha): 20%
inhibition at 10 g/ha (CENCY [2]; use rate 10 g ai/ha): 30%
inhibition at 18 g/ha (DIGSA [3]; 18 g ai/ha): 0%
inhibition at 36 g/ha (DIGSA [3]; 36 g ai/ha): 65%

COCC(C)N(C(=O)CCl)c1c(C)csc1C (centres unmarked) [Dimethenamid, dimethenamid]
observed % activity 20 DAT (APESV; use rate 62.5 g ai/ha, 20 DAT): 95%
pest or weed control at 250 g/ha (SIDRH; Sida rhombifolia, 480 h, pre-emergence, 250 g ai/ha, read-out: observed % activity 20 DAT): 70%
observed % activity 20 DAT (SIDRH; pre-emergence, 250 g ai/ha): 70%
observed % activity 20 DAT (MATIN; use rate 62.5 g ai/ha): 70%
observed % activity 20 DAT (MATIN; use rate 125 g ai/ha): 90%

CC1(c2nc(N)nc(Nc3c(F)c(F)cc(F)c3F)n2)CCC1 [compound 8, 6-(1-methylcyclobutyl)-N4-(2,3,5,6-tetrafluorophenyl)-1,3,5-triazine-2,4-diamine]
inhibition at 8 g/ha (ANTAR; 8 g ai/ha): 80%
inhibition at 16 g/ha (ANTAR; 16 g ai/ha): 85%
inhibition at 16 g/ha (IPOHE; 16 g ai/ha, 20 DAT, read-out: observed % activity): 35%
observed % activity (SIDRH; 8 g ai/ha, 20 DAT): 80%
observed % activity (SIDRH; 16 g ai/ha, 20 DAT): 80%
inhibition at 8 g/ha (SIDRH; Sida rhombifolia, pre-emergence, 480 h, 8 g ai/ha, 20 DAT, read-out: observed % activity): 65%
inhibition at 16 g/ha (SIDRH; Sida rhombifolia, pre-emergence, 480 h, 16 g ai/ha, 20 DAT, read-out: observed % activity): 85%
inhibition at 8 g/ha (SORHA; 192 h, 8 DAT): 90%
inhibition at 16 g/ha (SORHA; 192 h, 8 DAT): 90%
inhibition at 8 g/ha (SORHA; 480 h, 20 DAT): 90%
inhibition at 16 g/ha (SORHA; 480 h, 20 DAT): 90%

CCC(CC)Nc1c([N+](=O)[O-])cc(C)c(C)c1[N+](=O)[O-] [Pendimethalin, pendimethalin]
inhibition at 125 g/ha (APESV; Apera spica-venti, 480 h, use rate 125 g ai/ha, read-out: observed % activity 20 DAT): 85%
inhibition at 250 g/ha (APESV; Apera spica-venti, 480 h, use rate 250 g ai/ha, read-out: observed % activity 20 DAT): 75%
inhibition at 500 g/ha (APESV; Apera spica-venti, 480 h, use rate 500 g ai/ha, read-out: observed % activity 20 DAT): 95%
observed % activity 20 DAT (APESV; use rate 125 g ai/ha, 20 DAT): 60%
observed % activity 20 DAT (APESV; use rate 250 g ai/ha, 20 DAT): 75%
observed % activity 20 DAT (APESV; use rate 500 g ai/ha, 20 DAT): 95%
pest or weed control at 500 g/ha (IPOHE; 500 g ai/ha, read-out: observed % activity 20 DAT): 0%
pest or weed control at 1000 g/ha (IPOHE; 1000 g ai/ha, read-out: observed % activity 20 DAT): 0%
inhibition at 250 g/ha (SORHA; 480 h, 20 DAT): 75%
inhibition at 500 g/ha (SORHA; 480 h, 500 g ai/ha, 20 DAT): 85%
observed % activity 20 DAT (CENCY [4]; 500 g ai/ha): 25%
observed % activity 20 DAT (CENCY [4]; 1000 g ai/ha): 0%
observed % activity 20 DAT (ERICA [5]; 500 g ai/ha): 90%
observed % activity 20 DAT (ERICA [5]; 1000 g ai/ha): 90%

CC(C)N(C(=O)COc1nnc(C(F)(F)F)s1)c1ccc(F)cc1 [Flufenacet, flufenacet]
inhibition at 40 g/ha (SORHA; 480 h, 40 g ai/ha, 20 DAT): 95%

CC(C)(F)c1nc(N)nc(Nc2c(F)c(F)cc(F)c2F)n1 [compound 2, 6-(1-Fluoro-1-methyl-ethyl)-N4-(2,3,5,6-tetrafluorophenyl)-1,3,5-triazine-2,4-diamine]
inhibition at 1 g/ha (APESV; Apera spica-venti, 480 h, APESV, use rate 1 g ai/ha, 20 DAT, read-out: observed % activity 20 DAT): 95%
inhibition at 2 g/ha (APESV; Apera spica-venti, 480 h, APESV, use rate 2 g ai/ha, 20 DAT, read-out: observed % activity 20 DAT): 95%
observed % activity 20 DAT (APESV; use rate 2 g ai/ha, 20 DAT): 90% and 95%
observed % activity 20 DAT (APESV; use rate 4 g ai/ha, 20 DAT): 98%
observed % activity 20 DAT (MATIN; use rate 1 g ai/ha): 98%

CSc1nnc(C(C)(C)C)c(=O)n1N [metribuzin]
inhibition at 125 g/ha (SETVI; Setaria viridis, 480 h, 125 g ai/ha, read-out: observed % activity 20 DAT): 65%
inhibition at 250 g/ha (SETVI; Setaria viridis, 480 h, 250 g ai/ha, read-out: observed % activity 20 DAT): 95%
inhibition at 250 g/ha (IPOHE; 250 g ai/ha, read-out: observed % activity 20 DAT): 20%
inhibition at 250 g/ha (SORHA; 480 h, 20 DAT): 45%
inhibition at 125 g/ha (CENCY [1]; 125 g ai/ha): 75%
inhibition at 250 g/ha (CENCY [1]; 250 g ai/ha): 85%
inhibition at 125 g/ha (ERICA [6]): 98%

Cn1nc(C(F)(F)F)c(CS(=O)(=O)C2=NOC(C)(C)C2)c1OC(F)F [Pyroxasulfone, pyroxasulfone]
inhibition at 12.5 g/ha (APESV; [8]): 40%
inhibition at 25 g/ha (APESV; [8]): 50%
inhibition at 12.5 g/ha (APESV; [9]): 50%
inhibition at 25 g/ha (APESV; [9]): 60%
observed % activity 20 DAT (SETVI; 8 g ai/ha): 85%
pest or weed control at 24 g/ha (IPOHE; 24 g ai/ha, read-out: observed % activity 20 DAT): 10%
pest or weed control at 12 g/ha (SIDRH; Sida rhombifolia, 480 h, pre-emergence, 12 g ai/ha, read-out: observed % activity 20 DAT): 45%
pest or weed control at 24 g/ha (SIDRH; Sida rhombifolia, 480 h, pre-emergence, 24 g ai/ha, read-out: observed % activity 20 DAT): 95%
observed % activity 20 DAT (SIDRH; pre-emergence, 12 g ai/ha): 45%
inhibition at 6 g/ha (SORHA; 480 h, 6 g ai/ha, 20 DAT): 75%
inhibition at 24 g/ha (SORHA; 480 h, 24 g ai/ha, 20 DAT): 98%
observed % activity 20 DAT (CENCY [4]; 24 g ai/ha): 15%
observed % activity 20 DAT (DIGSA [7]): 95%

Source: patent publication US9999222B2, “Herbicidal combination comprising azines” (BASF SE, priority 2014, dated 2018)
